Laboratory results as given in PubChem BioAssay AID1918996 (Molecular Pharmacology Branch, DTP, NCI, 2023).
Several values for one entry are separate records, joined by “and”; a condition that tells them apart may be missing. Equal entries are not always repeated.

System: 349418-098-R-PDC complex spheroid growth
Assay: Anticancer human tumor 349418-098-R-PDC patient-derived lung adenocarcinoma cell line growth inhibition [AhR]
Conditions: for viability, T/C: stronger effect = lower value
How it was run: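 Agents were dosed in half-log steps down from roughly clinical Cmax, or from 10 microM where Cmax was unknown, alone and with AhR antagonists. Read-out: percent test/control growth of tumor spheroids containing HUVEC and MSC stromal cells.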

[1] = curve of first compound, second compound 0.1 µM
[2] = curve of first compound, second compound 0.316 µM
[3] = curve of first compound, second compound 1 µM
[4] = curve of first compound, second compound 3.16 µM
[5] = curve of first compound, second compound 10 µM
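Further: spheroids exposed to agents for seven days before luminescence viability read.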
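Wherever viability, T/C is given: spheroids also contain HUVEC endothelial cells and human MSC stroma.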

## Nc1ncn(C2CC(O)C(CO)S2)c(=O)n1 (configuration not stated) + CC(CO)NC(=O)c1cc(-c2ccc(Cl)cc2)nn(-c2cnn(C)c2)c1=O
[1]
  IC50: 87.6 nM
[2]
  IC50: 32.4 nM
[3]
  IC50: 45.7 nM
[4]
  IC50: 24.9 nM
[5]
  IC50: 19.9 nM
Second compound 0.1 µM, first compound 0.000949 µM
  viability, T/C: 86.5%
Second compound 0.1 µM, first compound 0.003 µM
  viability, T/C: 85.5%
Second compound 0.1 µM, first compound 0.00949 µM
  viability, T/C: 56.2%
Second compound 0.1 µM, first compound 0.03 µM
  viability, T/C: 62.2%
Second compound 0.1 µM, first compound 0.0949 µM
  viability, T/C: 60.8%
Second compound 0.1 µM, first compound 0.3 µM
  viability, T/C: 31.9%
Second compound 0.316 µM, first compound 0.000949 µM
  viability, T/C: 72.6%
Second compound 0.316 µM, first compound 0.003 µM
  viability, T/C: 118%
Second compound 0.316 µM, first compound 0.00949 µM
  viability, T/C: 68.8%
Second compound 0.316 µM, first compound 0.03 µM
  viability, T/C: 52.6%
Second compound 0.316 µM, first compound 0.0949 µM
  viability, T/C: 47.8%
Second compound 0.316 µM, first compound 0.3 µM
  viability, T/C: 27.4%
Second compound 1 µM, first compound 0.000949 µM
  viability, T/C: 96.4%
Second compound 1 µM, first compound 0.003 µM
  viability, T/C: 68.9%
Second compound 1 µM, first compound 0.00949 µM
  viability, T/C: 90.5%
Second compound 1 µM, first compound 0.03 µM
  viability, T/C: 53.7%
Second compound 1 µM, first compound 0.0949 µM
  viability, T/C: 37.8%
Second compound 1 µM, first compound 0.3 µM
  viability, T/C: 21.4%
Second compound 3.16 µM, first compound 0.000949 µM
  viability, T/C: 86.1%
Second compound 3.16 µM, first compound 0.003 µM
  viability, T/C: 58%
Second compound 3.16 µM, first compound 0.00949 µM
  viability, T/C: 66.5%
Second compound 3.16 µM, first compound 0.03 µM
  viability, T/C: 47%
Second compound 3.16 µM, first compound 0.0949 µM
  viability, T/C: 39.9%
Second compound 3.16 µM, first compound 0.3 µM
  viability, T/C: 24.2%
Second compound 10 µM, first compound 0.000949 µM
  viability, T/C: 53.5%
Second compound 10 µM, first compound 0.003 µM
  viability, T/C: 71.8%
Second compound 10 µM, first compound 0.00949 µM
  viability, T/C: 60%
Second compound 10 µM, first compound 0.03 µM
  viability, T/C: 43.1%
Second compound 10 µM, first compound 0.0949 µM
  viability, T/C: 33.3%
Second compound 10 µM, first compound 0.3 µM
  viability, T/C: 24.5%

## CCN(c1cc(-c2ccc(CN3CCOCC3)cc2)cc(C(=O)NCc2c(C)cc(C)[nH]c2=O)c1C)C1CCOCC1
Compound 0.00949 µM
  viability, T/C: 111% and 107% and 122%
Compound 0.03 µM
  viability, T/C: 109% and 98.9% and 71.2%
Compound 0.0949 µM
  viability, T/C: 105% and 81.2% and 91.1%
Compound 0.3 µM
  viability, T/C: 108% and 64.7% and 101%
Compound 0.949 µM
  viability, T/C: 99.1% and 66.3% and 69.3%
Compound 3 µM
  viability, T/C: 94% and 69.9% and 88.5%
Curve of compound
  IC50: > 3000 nM

## Nc1ccn(C2OC(CO)C(O)C2(F)F)c(=O)n1 (configuration not stated) + CC(CO)NC(=O)c1cc(-c2ccc(Cl)cc2)nn(-c2cnn(C)c2)c1=O
[1]
  IC50: < 31.6 nM
[2]
  IC50: < 31.6 nM
[3]
  IC50: < 31.6 nM
[4]
  IC50: < 31.6 nM
[5]
  IC50: < 31.6 nM
Second compound 0.1 µM, first compound 0.0316 µM
  viability, T/C: 11.7%
Second compound 0.1 µM, first compound 0.1 µM
  viability, T/C: 13.3%
Second compound 0.1 µM, first compound 0.316 µM
  viability, T/C: 12.8%
Second compound 0.1 µM, first compound 1 µM
  viability, T/C: 10.8%
Second compound 0.1 µM, first compound 3.16 µM
  viability, T/C: 9.89%
Second compound 0.1 µM, first compound 10 µM
  viability, T/C: 7.31%
Second compound 0.316 µM, first compound 0.0316 µM
  viability, T/C: 11.5%
Second compound 0.316 µM, first compound 0.1 µM
  viability, T/C: 12.5%
Second compound 0.316 µM, first compound 0.316 µM
  viability, T/C: 13.3%
Second compound 0.316 µM, first compound 1 µM
  viability, T/C: 10.6%
Second compound 0.316 µM, first compound 3.16 µM
  viability, T/C: 9.24%
Second compound 0.316 µM, first compound 10 µM
  viability, T/C: 6.37%
Second compound 1 µM, first compound 0.0316 µM
  viability, T/C: 12.7%
Second compound 1 µM, first compound 0.1 µM
  viability, T/C: 13.5%
Second compound 1 µM, first compound 0.316 µM
  viability, T/C: 13.3%
Second compound 1 µM, first compound 1 µM
  viability, T/C: 11.2%
Second compound 1 µM, first compound 3.16 µM
  viability, T/C: 8.78%
Second compound 1 µM, first compound 10 µM
  viability, T/C: 5.77%
Second compound 3.16 µM, first compound 0.0316 µM
  viability, T/C: 12.1%
Second compound 3.16 µM, first compound 0.1 µM
  viability, T/C: 13.4%
Second compound 3.16 µM, first compound 0.316 µM
  viability, T/C: 12.8%
Second compound 3.16 µM, first compound 1 µM
  viability, T/C: 9.14%
Second compound 3.16 µM, first compound 3.16 µM
  viability, T/C: 7.92%
Second compound 3.16 µM, first compound 10 µM
  viability, T/C: 7.72%
Second compound 10 µM, first compound 0.0316 µM
  viability, T/C: 12.3%
Second compound 10 µM, first compound 0.1 µM
  viability, T/C: 11%
Second compound 10 µM, first compound 0.316 µM
  viability, T/C: 11.6%
Second compound 10 µM, first compound 1 µM
  viability, T/C: 8.92%
Second compound 10 µM, first compound 3.16 µM
  viability, T/C: 7.77%
Second compound 10 µM, first compound 10 µM
  viability, T/C: 8.23%
